Consider five compounds from US9242009B2, “Compositions and methods to treat neurodegenerative diseases” (The General Hospital Corporation, priority 2012, dated 2016).

Data set [1] has as its system SH-SY5Y. Briefly: Amyloid beta-induced toxicity in SH-SY5Y (LDH release, MTT). Format: cell-based, Human. As to conditions: 24 hours incubation with Aβ1-42 at 20 μM; for Cell viabilities after Aβ1-42: compound 20 or 50 μM. As for the experimental part:
FIG. 12A-B is a set of two bar graphs showing cell viability of SH-SY5Y cells exposed to 20 μM amyloid beta (Aβ) and treated with memantine, ACS48, or S-memantine at 20 or 50 μM. Cell viability was estimated by LDH release assay in the left graph and MTT assay in the right graph.
(In general: LDH leaks from cells whose membrane has failed.)

Data set [2] can be described thus: Plasma and cerebral sulfide levels of mice after intraperitoneal administration. Format: in vivo. The settings on record: 25 μmol/kg intraperitoneal, 90 minutes after administration. The source says: Blood was drawn from left ventricle and centrifuged to collect the plasma. After perfusion with Tris-HCl buffer via left ventricle, brain was harvested, homogenized in Tris-HCl, and centrifuged. Plasma and supernatant of brain homogenate were derivatized with MBB and analyzed by HPLC.

Data set [3] has as its system murine primary cortical neurons. Briefly: Cytotoxicity of H2S donors to murine primary cortical neurons (LDH release). As to conditions: 24 hours. Format: cell-based, mice. As for the experimental part: (§1) A microtiter plate containing cells was centrifuged at 250×g for 10 minutes and the supernatant was used for LDH measurement with LDH Cytotoxicity Detection Kit (Roche). After aspirating the medium, remaining cells were washed with PBS, then, 100 μl of 1% Triton-X was added to each well, followed by incubation at 37° C. for 30 minutes. Medium and lysates were used for LDH measurement at wavelength 492 nm. Percentage of released LDH was calculated with following formula: {LDH (medium)/LDH (medium+cell)×100}. Average value of control (cells without OGD) was deducted as background.

Data set [4] relates to SH-SY5Y cells. Put plainly: Intracellular sulfide levels in SH-SY5Y cells (HPLC). Format: cell-based, Human. The procedure: Human neuroblastoma SH-SY5Y cells were cultured in Eagle's medium/Ham's F-12 50/50 Mix (DMEM/F12, Cellgro by Mediatech, Inc.) supplemented with 10% fetal bovine serum (FBS) and 1% penicillin/streptomycin. The cells were seeded into 96 well plates (2×10^4 cells per well) for OGD and measurements of toxicity, 6 cm dishes (5×10^5 cells per dish) for measurements of sulfide and reduced-glutathione (GSH), or 10 cm dishes (1×10^6 cells per dish) for measurements of intracellular calcium. Cell culture medium was replaced every 2 days, and the cultures were maintained at 37° C. in 95% air/5% CO2 in a humidified incubator. Cells were used after reaching 80% confluent.
Concentration of free sulfide in SH-SY5Y cells was measured using high performance liquid chromatography (HPLC) (Tokuda et al. (2012) Antioxidants & Redox Signaling). Briefly, SH-SY5Y cells were seeded into 6 cm dishes (5×10^5 cells per dish). After being 80% confluent, 20 μM H2S donor was added to the dish and incubated at 37° C. Cells were washed with ice-cold Tris-HCl (100 mM, PH 9.5, DTPA 0.1 mM) buffer, scraped, transferred to microfuge tubes, and centrifuged. MBB (10 mM in acetonitrile, 50 μl) was added to 100 μl of supernatant. After 30 minutes of incubation at room temperature in dark, 50 μl of 200 mM 5-sulfosalicylic acid (SSA) was added. After centrifugation, supernatant was analyzed by HPLC. For sulfide levels in medium, after centrifugation, supernatant was used for MBB reaction as above.
In contrast, incubation of SH-SY5Y cells with S-memantine increased intracellular sulfide level more markedly than incubation with ACS48 at all time points after addition (˜10 fold at 4 hours, P<0.001 by two-way ANOVA with Bonferroni post-test). In a separate experiment, we examined whether or not incubation with memantine itself or incubation with ACS48 and memantine would affect intracellular sulfide levels in SH-SY5Y cells.

Data set [5] relates to SH-SY5Y cells. Briefly: Oxygen-glucose deprivation (OGD) of SH-SY5Y cells, viability by LDH release, MTT and CV assays. Format: cell-based, Human. The procedure:
OGD for SH-SY5Y was performed by placing cells in a hypoxia chamber ([…] Technologies Inc.) for 15 hours, followed by 24 hours of reoxygenation as previously reported (FIG. 3A) (Serra-Pérez et al. (2008) Journal of Neurochemistry 106, 1237-1247). Briefly, medium was replaced with glucose-free RPMI 1640 with L-glutamine (Cellgro by Mediatech, Inc), deoxygenated with anaerobic gas mixture (93% N2-5% CO2-2% H2) for 30 minutes before use. Cells were then placed in a hypoxia chamber, flushed with anaerobic gas mixture (93% N2-5% CO2-2% H2) and incubated at 37° C. After 15 hours of hypoxia, medium was replaced with DMEM/F12 and incubated for 24 hours at 37° C. in 95% air/5% CO2 in a humidified incubator.
as §1
Ten μl of thiazolyl blue tetrazolium bromide solution (5 mg/ml in PH 7.4 PBS) was added to each well containing 100 μl of medium and cells, followed by incubation at 37° C. for 4 hours in the dark. Isopropanol (100 μl, 0.04 N HCl) was added to dissolve blue dye. After dissolved completely, absorbance was measured with plate-reader (Synergy 2, BioTek Instrument) at test wavelength 570 nm and reference wavelength 670 nm. Cell viability was determined by absorbance at 570 nm and reported as ratio to control cells (without OGD).
After aspirating culture medium, cells were fixed and stained by 0.5% CV in 95% (v/v) ethanol for 5 minutes, then washed by tap water several times. After taking photographs, 1% sodium dodecylsulfate solution was added to each well to elute blue dye. Absorbance was measured with plate-reader at 595 nm of wavelength. Values were shown as ratio to control (cells without OGD).

In data set [6] the test system is murine primary cortical neurons. Put plainly: Intracellular calcium level [Ca2+]i (Fura-2/AM) with or without glutamate. Format: cell-based, mice. On the technique in general: Calcium assays in cells follow changes in intracellular calcium, usually with a dye or a luminescent sensor.
For data set [7] the test system is unchanged. Put plainly: Amyloid beta-induced toxicity in murine primary cortical neurons (LDH release, MTT). As to conditions: 24 hours incubation with Aβ1-42 at 20 μM; for Cell viabilities after Aβ1-42: compound 5, 10 or 30 μM. It counts as cell-based, mice. As for the experimental part: FIG. 13A-B is a set of two bar graphs depicting cell viability of murine primary cortical neurons exposed to 20 μM amyloid beta (Aβ) and treated with memantine, ACS48, or S-memantine at 5, 10, or 30 μM. Cell viability was estimated by LDH release assay in the left graph and MTT assay in the right graph.

Data set [8] deals with SH-SY5Y. Briefly: Intracellular GSH levels in SH-SY5Y (HPLC). Format: cell-based, Human. As for the experimental part:
Intracellular GSH level of SH-SY5Y was measured using HPLC method as previously reported (Kimura et al. (2009) Antioxidants & Redox Signaling 12, 1-13). Briefly, cells were seeded into 6 cm dishes (5×10^5 cells per dish) and treated with 50 μM H2S donors or memantine with or without 2 mM glutamate for 8 hours, followed by washing with ice-cold PBS. Cells were scraped and transferred to a microfuge tube and sonicated. Some fraction of lysate was used for protein assay. After centrifugation, 75 μl of supernatant, 26 μl of 2-(cyclohexylamino) ethanesulfonic acid (CHES, 0.5 M, PH 8.4), and 4 μl of 50 μM MBB were mixed and incubated at room temperature in dark for 30 minutes. Acetic acid (100 μl, 30% v/v) was added, followed by centrifugation at 15,000×g for 10 min after 5 min incubation of the tube on ice. The supernatant was analyzed using HPLC at wavelength of λex=370 nm and λem=486 nm.

For the next data set, the system named is mice challenged with LPS. Briefly: LPS-induced cognitive impairment, Morris water-maze.
Data set [9] has as its system phosphorylated Akt at threonine 308. Briefly: Immunoblot of phosphorylated Akt in SH-SY5Y after OGD. It counts as cell-based, Human. As to conditions: 50 μM added 8 hours after end of OGD. (In western blotting, separated proteins are transferred to a membrane and probed.)
For data set [10], the system named is phosphorylated tau protein at serine 202 and threonine 205. Put plainly: LPS-induced tau phosphorylation in mice hippocampus (immunoblot). It counts as in vivo.
Data set [11] has as its system SH-SY5Y cells. Briefly: MPP+-induced cytotoxicity in SH-SY5Y cells (CV, MTT assay). As to conditions: 24 h. Format: cell-based, Human. As for the experimental part:
The abilities of ACS48-amantadine, CTBA-memantine, S-memantine, and ACS81-memantine to improve viabilities of SH-SY5Y cells incubated with MPP^+, which has been used for an in-vitro Parkinson's disease model (Robert et al. (2012) Cell Death and Differentiation, 19, 1769-1778), were examined. SH-SY5Y cells (96 well plate, 2×10^5 cells/well) were incubated with MPP^+ (Sigma-Aldrich) at 5 mM in DMEM/F12 at 37° C. for 24 h. ACS48-amantadine, CTBA-memantine, S-memantine, or ACS81-memantine was dissolved in DMSO and added at 5 or 20 μM to the medium 30 min after the addition of MPP^+. The final concentration of DMSO in the medium was adjusted to 0.5% (v/v). Cell viabilities of SH-SY5Y 24 h after the addition of MPP^+ were measured by CV assay or MTT assay.

[12] abbreviates: time- and dose-range studies, SH-SY5Y.
The mark [13] stands for this setting: 20 μM added 30 min after 5 mM MPP+.

Entries after “also recorded” stand apart in the source; their conditions may differ. Read-outs that look alike come from different tables or passages of the source.

On to `O=C(O)c1ccc(-c2cssc2=S)cc1` [ACS48, 4-(3-thioxo-3H-1,2-dithiol-4-yl)-benzoic acid], for which, in the data set with SH-SY5Y [1], the “Cell viabilities after Aβ1-42 compared with memantine” value was “improved cell viabilities more markedly than did memantine” and the “Cell viabilities after Aβ1-42” value was “improved cell viabilities”. In addition, the Plasma sulfide levels entry in data set [2] is “increased plasma sulfide levels”. Further, in [3] (50 μM, without memantine), the “LDH release (cytotoxicity)” value is on record as “markedly increased LDH release”. Besides, the “Time of peak intracellular sulfide levels after addition” value in the data set on SH-SY5Y cells [4] (20 μM, SH-SY5Y) was “around 1.5 hours”. In addition, the Intracellular sulfide levels entry with SH-SY5Y cells [4] (20 μM, SH-SY5Y, 37° C.) is given as “increased intracellular sulfide levels”. Also, in the data set on SH-SY5Y cells [5] (setting [12]), the “Most effective dose to improve viability after OGD” value turned out to be 50 µM and the “Most effective time point of addition after the end of OGD” value was 8 h. The Glutamate-induced calcium accumulation result in data set [6] (20 μM, 100 μM glutamate) was “augmented glutamate-induced calcium accumulation”. The “Increase of intracellular calcium [Ca2+]i” value in data set [6] (20 μM, without glutamate) is listed as “increased”. Further, in data set [7], the “Cell viabilities after Aβ1-42 compared with memantine” value was “improved cell viabilities more markedly than did memantine” and the “Cell viabilities after Aβ1-42” value was “improved cell viabilities”. In the data set with SH-SY5Y [8] (50 μM, 8 hours, with 2 mM glutamate), the “Intracellular GSH levels” value is on record as “restored intracellular GSH levels”. For the same compound, the “Intracellular GSH levels” value in the data set with SH-SY5Y [8] (50 μM, 8 hours, without glutamate) is listed as “increased intracellular GSH levels”.

For the compound `CC12CC3CC(C)(C1)CC(N)(C3)C2` [memantine], the figures for the “Swimming speed in Morris water-maze test” value in the data set on mice challenged with LPS (45 μmol/kg i.p.) and in the data set on mice challenged with LPS (90 μmol/kg i.p.) were “did not change it” and “slowed swimming speed”, respectively. Also, the “Cell viabilities after Aβ1-42” value (in the data set on SH-SY5Y [1]; in [7]) was “improved cell viabilities” each time. In addition, the “Aβ1-42 accumulation in mice cortex, or hippocampus” value with Aβ1-42 (45 μmol/kg pretreatment, LPS challenge for 7 days) is “prevented Aβ1-42 accumulation”. Further, the “LDH release caused by Na2S or ACS48 on co-incubation with memantine” value in data set [3] (50 μM Na2S or ACS48 plus 50 μM memantine) is recorded as “abolished”. For the same compound, in the data set on SH-SY5Y cells [4] (20 μM memantine, cells incubated with or without ACS48 20 μM), the “Effect of memantine on intracellular sulfide levels” value is on record as “did not affect intracellular sulfide levels”. In addition, the “Akt phosphorylation after OGD” value in data set [9] is listed as “did not affect Akt phosphorylation”. Also, in [10] (45 μmol/kg pretreatment), the “LPS-induced tau phosphorylation at serine 202 and threonine 205 in mice hippocampus” value was “prevented LPS-induced tau phosphorylation”. The Glutamate-induced calcium accumulation result in data set [6] (20 μM, 100 μM glutamate) is “suppressed calcium accumulation”. Besides, in the data set on SH-SY5Y [8] (50 μM, 8 hours), the “GSH levels, memantine per se” value is “did not affect GSH levels”.

Take `CC12CC3CC(C)(C1)CC(NC(=O)c1ccc(C(N)=S)cc1)(C3)C2` [CTBA-memantine]: the “Cell viabilities of SH-SY5Y cells after MPP+” value in the data set with SH-SY5Y cells [11] (setting [13]) is “improved cell viabilities”.

As for `O=C(NC12CC3CC(CC(C3)C1)C2)c1ccc(-c2cssc2=S)cc1` [ACS48-amantadine], the “Cell viabilities of SH-SY5Y cells after MPP+” value in the data set on SH-SY5Y cells [11] (5 μM added 30 min after 5 mM MPP+) and in the data set with SH-SY5Y cells [11] (setting [13]) was “improved cell viabilities” in each case.

Turning to Sodium sulfide [Na2S], in the data set on mice challenged with LPS (mouse, in vivo), the “Latency until getting platform in Morris water-maze test” value is “improved latency”. For the same compound, in the data set on Aβ1-42 (mouse, in vivo), the “Aβ1-42 accumulation in mice cortex, or hippocampus” value is “prevented Aβ1-42 accumulation” and the “Prevention of Aβ1-42 accumulation compared with memantine” value is reported as “prevented Aβ1-42 accumulation more markedly than did memantine”. Further, in the data set with SH-SY5Y cells [4], the Intracellular sulfide levels result is on record as “increased intracellular sulfide levels” and the “Time of peak intracellular sulfide levels after addition” value is on record as “around 1.5 hours”. The “Cell viability after OGD (LDH release)” value in the data set on SH-SY5Y cells [5] is “did not improve cell viability; also recorded: failed to improve cell viability; also recorded: No significant difference”. Also, the “LPS-induced tau phosphorylation at serine 202 and threonine 205 in mice hippocampus” value in [10] (mouse, in vivo) is “prevented LPS-induced tau phosphorylation”. In data set [6], the Glutamate-induced calcium accumulation entry is given as “augmented glutamate-induced calcium accumulation” and the “Increase of intracellular calcium [Ca2+]i” value is recorded as “increased”. The “Intracellular GSH levels” value in the data set on SH-SY5Y [8] was “increased intracellular GSH levels; also recorded: restored intracellular GSH levels”.
